Measured values: PubChem BioAssay (NCI)
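Following 48 hours of exposure in 96-well plates, responses at five concentrations were used to interpolate endpoints linearly. GI50: concentration for 50% inhibition of growth. TGI: concentration producing complete growth inhibition.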

Assays:
Test in all cases: inhibition of tumour cell growth, NCI panel, 48 h
UO-31 renal = tested on: UO-31 renal
SF-295 CNS = tested on: SF-295 CNS
U251 CNS = tested on: U251 CNS
SK-MEL-28 melanoma = tested on: SK-MEL-28 melanoma
BT-549 breast = tested on: BT-549 breast
COLO 205 colon = tested on: COLO 205 colon
A549 NSCLC = tested on: A549 NSCLC
SK-MEL-5 melanoma = tested on: SK-MEL-5 melanoma
TK-10 renal = tested on: TK-10 renal
KM12 colon = tested on: KM12 colon

| Structure (SMILES) | TGI (UO-31 renal) | TGI (SF-295 CNS) | TGI (U251 CNS) | TGI (SK-MEL-28 melanoma) | TGI (BT-549 breast) | TGI (COLO 205 colon) | TGI (A549 NSCLC) | TGI (SK-MEL-5 melanoma) | TGI (TK-10 renal) | TGI (KM12 colon) | GI50 (UO-31 renal) | GI50 (SF-295 CNS) | GI50 (U251 CNS) | GI50 (SK-MEL-28 melanoma) | GI50 (BT-549 breast) | GI50 (COLO 205 colon) | GI50 (A549 NSCLC) | GI50 (SK-MEL-5 melanoma) | GI50 (TK-10 renal) | GI50 (KM12 colon) |
| --- | --- | --- | --- | --- | --- | --- | --- | --- | --- | --- | --- | --- | --- | --- | --- | --- | --- | --- | --- | --- |
| C/C(=C\CBr)CCC(Br)C(C)(C)Br (stereo not given) | > 100 µM | > 100 µM | > 100 µM | > 100 µM | > 100 µM | > 100 µM | > 100 µM | > 100 µM | > 100 µM | > 100 µM |  |  |  |  |  |  |  |  |  |  |
| O=C1CCCCC1CN1CCCCC1 (stereo not given) | > 100 µM | > 100 µM | > 100 µM | > 100 µM | > 100 µM | > 100 µM | > 100 µM | > 100 µM | > 100 µM | > 100 µM |  |  |  |  |  |  |  |  |  |  |
| COC(=O)c1c(C)nc2c1cc(O)c1[nH]c(C)c(C)nc12 | > 100 µM | > 100 µM | > 100 µM | > 100 µM | > 100 µM | > 100 µM | > 100 µM | > 100 µM | > 100 µM | > 100 µM |  |  |  |  |  |  |  |  |  |  |
| O=C(c1ccccn1)C1(N2CCCCC2)CCCCC1 | > 100 µM | > 100 µM | > 100 µM | > 100 µM | > 100 µM | > 100 µM | > 100 µM | > 100 µM | > 100 µM | > 100 µM |  |  |  |  |  |  |  |  |  |  |
| Cc1ccnc(NS(=O)(=O)c2ccc(N=[N+]=[N-])cc2)n1 | > 100 µM | > 100 µM | > 100 µM | > 100 µM | > 100 µM | > 100 µM | > 100 µM | > 100 µM | > 100 µM | > 100 µM |  |  |  |  |  |  |  |  |  |  |
| N#CC(NCc1cccc(CNC(C#N)c2ccccc2)c1)c1ccccc1 (stereo not given) | > 100 µM | > 100 µM | > 100 µM | 33.8 µM | 87 µM | 42.6 µM | > 100 µM | > 100 µM | > 100 µM | 56.6 µM |  |  |  |  |  |  |  |  |  |  |
| CCOC(=O)c1c(CN2CCCC2)n(-c2ccccc2)c2cc(Br)c(O)cc12 | 24.5 µM | 32 µM | 30.4 µM | 29.7 µM | 55.8 µM | 22.4 µM | 32 µM | 26.4 µM | 48 µM | 32.2 µM |  |  |  |  |  |  |  |  |  |  |
| CC1(C(=O)O)CCC2(C)CCC3(C)C(=CC(=O)C4C5(C)CCC(O)C(C)(C)C5CCC43C)C2C1 (stereo not given) | 57.1 µM | 70.1 µM | > 100 µM | 52.4 µM | 42.3 µM | > 100 µM | > 100 µM | 54.3 µM | > 100 µM | 37.3 µM |  |  |  |  |  |  |  |  |  |  |
| NC1(c2cc3ccccc3s2)CCCC1 | > 100 µM | > 100 µM | > 100 µM | 48.1 µM | > 100 µM | 43.1 µM | > 100 µM | 68.2 µM | 85.7 µM | > 100 µM |  |  |  |  |  |  |  |  |  |  |
| Cc1ccccc1C(=N)c1ccccc1Cc1cccc2ccccc12 | > 100 µM | 62.5 µM | 33.9 µM | 54.1 µM | 92 µM | 76.9 µM | > 100 µM | 34.5 µM | > 100 µM | 41.9 µM |  |  |  |  |  |  |  |  |  |  |
| O=c1[nH]c(=S)[nH]c2c1C(c1ccc([N+](=O)[O-])cc1)c1c([nH]c(=S)[nH]c1=O)O2 | > 100 µM | > 100 µM | > 100 µM | > 100 µM | > 100 µM | > 100 µM | > 100 µM | > 100 µM | > 100 µM | > 100 µM |  |  |  |  |  |  |  |  |  |  |
| CCOC(=O)N1CCN(Cc2cc(=O)n3ccc(C)cc3n2)CC1 | > 100 µM | > 100 µM | > 100 µM | > 100 µM | > 100 µM | > 100 µM | > 100 µM | > 100 µM | > 100 µM | > 100 µM |  |  |  |  |  |  |  |  |  |  |
| O=C(/C=C/c1ccccc1)C[C@@H](O)C[C@@H]1CC=CC(=O)O1 | 28.9 µM | 28 µM | 21.7 µM | 24.9 µM | 27.7 µM | 17.8 µM | 52.2 µM | 26.6 µM | 28.9 µM | 16.5 µM |  |  |  |  |  |  |  |  |  |  |
| CCCCCC1=CC(=O)C1(Cl)Cl | 38.2 µM | 62.1 µM | 25.1 µM | 36.8 µM | 56.8 µM | 26.7 µM | 71.5 µM | 24 µM | 20.8 µM | 27.9 µM |  |  |  |  |  |  |  |  |  |  |
| COc1ccc(-c2[nH]c3c4c(nc5c(c24)C(=O)CC(C)(C)C5)CC(C)(C)C3)cc1 | > 100 µM | > 100 µM | > 100 µM | > 100 µM | > 100 µM | > 100 µM | > 100 µM | > 100 µM | > 100 µM | > 100 µM |  |  |  |  |  |  |  |  |  |  |
| COc1ccc(CN2C(=O)/C(=C\c3cc(OC)c(OC)c(OC)c3)c3ccccc32)cc1 | 2.91 µM | 35.8 µM | 2.98 µM | 3.74 µM | 7.53 µM | 3.44 µM | > 100 µM | 6.63 µM | 4.33 µM | 3.57 µM | 1.18 µM | 3.79 µM | 1.56 µM | 1.82 µM | 1.08 µM | 1.89 µM | 2.51 µM | 2.51 µM | 1.14 µM | 1.89 µM |
